Source: publication PMC9687439 (Biology, 2022)
Entries after “also recorded” stand apart in the source; their conditions may differ. Like-named read-outs stand apart in the source and are kept apart here. Ends that are not written are not given here.

Columns and labels:
[1] = system: Xylella fastidiosa subsp. pauca, strain De Donno; type: cell-based
S. aureus = settings: cited from earlier work
[2] = system: Xylella fastidiosa biofilm; type: cell-based; settings: 50 μM, 20 days, 28 °C
[3] = system: Xylella fastidiosa subsp. pauca, strain De Donno; type: cell-based; remark: listed apart in the source
Xylella fastidiosa cells [4] = type: cell-based
[5] = system: Xanthomonas albilineans (Xa), strain CFBP2523; type: cell-based; design: key: +++: Clear plaque formation; ++: turbid plaque formation; +: highly turbid plaque formation; -: no plaque formation
E. coli = settings: cited from earlier work
Xylella fastidiosa cells [6] = type: cell-based; remark: listed apart in the source
Xylella fastidiosa cells [7] = type: cell-based; remark: listed apart in the source
[8] = system: Nicotiana tabacum cv. Xanthi leaves; settings: in vivo
[9] = system: Xylella fastidiosa subsp. pauca isolate De Donno in Nicotiana tabacum (var. Xanthi); type: in vivo
Xf strain 9a5c = settings: cited from earlier work
Xf = settings: 1 mg/mL; cited from earlier work
X. fastidiosa = settings: cited from earlier work

Row | Compound | reductive activity against Xf cells (OD600, words) [1] | MIC (μM) S. aureus (S. aureus) [µM] | effect on Xf biofilm formation (comparison, words) [2] | antimicrobial activity on Xf growth in antibiogram [3] | lytic activity by fluorescence microscopy (live green / dead red) (Xylella fastidiosa cells [4]) | growth inhibition of Xanthomonas albilineans (plaque formation) [5] | MIC (μM) E. coli (E. coli) [µM] | morphological changes of Xf cells under TEM (Xylella fastidiosa cells [6]) | other results
1 | FFGKVLKLIRKIF-NH2 [FF13, DASamP1, synthetic antimicrobial peptide, …-NH2] | greatest activity | 3.1 | greater performance than KL29 | particularly highly active | moderate lytic activity | +++ | >100 | cytoplasmic condensation, loss of interior appearance, and alteration of the outer membrane | reduction in Xf cell viability (v-qPCR) (Xylella fastidiosa cells [7]): twofold reduction in cell viability
2 | FFHHIFRGIVHVGKTIHRLVTG [FG22, Piscidin 1, antimicrobial peptide, source fish] | – | 3.1 | – | – | – | +++ and - | 12.5 | – | –
3 | GFKDLLKGAAKALVKTVLF-NH2 [GF19, Ascaphin-8] | greatest activity | 3.1 | interfered with biofilm formation in the same manner as NAC; also recorded: greater performance than KL29 | particularly highly active; also recorded: distinct inhibitory activity | highest lytic activities | +++ | 12.5 | damaged and fragmented cell walls, with complete destruction of the outer and inner bacterial membranes | diameter of halo-shaped tissue dissolving in tobacco leaves [8]: 7 mm; hypersensitive reaction in tobacco leaves [8]: light hypersensitive reaction; reduction in viability of Xf compared to untreated cells (v-qPCR) (Xylella fastidiosa cells [7]): more-than-fourfold reduction in viability
4 | Lycotoxin I [IL25] | – | 3.1 | – | – | – | +++ and - | 25 | – | –
5 | IKWKKLLRAAKRIL-NH2 [IL14, DASamP2, synthetic antimicrobial peptide, […]-NH2] | greatest activity | 6.2 | greater performance than KL29 | particularly highly active | moderate lytic activity | +++ | 3.1 | cytoplasmic condensation, loss of interior appearance, and alteration of the outer membrane | reduction in Xf cell viability (v-qPCR) (Xylella fastidiosa cells [7]): twofold reduction in cell viability
6 | GLLGLLGSVVSHVVPAIVGHF-NH2 [GF21, Maculatin 1.3, antimicrobial peptide, source frog] | – | 6.2 | – | – | – | +++ and - | >100 | – | –
7 | CC(=O)N[C@@H](CS)C(=O)O [NAC, N-acetyl-L-cysteine] | – | – | – | – | – | – | – | – | Xf disease symptoms in Xf-infected tobacco plants ([9]; 30 dpi, 100 μL of treatment at inoculation point): did not develop any symptoms; Xf disease symptoms in Xf-infected tobacco leaf ([9]; 45 dpi, positive control treatment): no symptoms; effect on biofilm biomass of Xf strain 9a5c (Xf strain 9a5c): reducing the biofilm biomass; activity against Xf (Xf): biocidal; morphological changes of Xf cells under TEM (Xylella fastidiosa cells [6]; 50 μM, 1 h, room temperature, Xf 10^8 CFU/mL): pore and protrusion formation and condensed cytoplasmic outflow from the outer membrane
8 | VQFRIRVRIVIRK-NH2 [VK13, 1036, synthetic antimicrobial peptide, […]-NH2] | – | – | – | – | – | +++ and + | – | – | MIC (μM) X. fastidiosa (X. fastidiosa): 12.5 µM
9 | RIVWVRIRRWFV-NH2 [RV12, RIJK2, synthetic antimicrobial peptide, …-NH2] | – | – | – | – | – | +++ and + | – | – | MIC (μM) X. fastidiosa (X. fastidiosa): 12.5 µM
